Experimental data taken from the supplement of paper PMC10307832.

Columns and labels:
Assay in all cases: relative viability (nuclei count vs DMSO), 5 days (fraction); higher = more cells survive
[1] = system: NCI-H727
Outline: (§1)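 Cells from lung cancer lines were seeded into 1536-well plates and, one day later, dosed by pin tool. Treatments were either a single drug or a fixed dose of an anchor drug with five library-drug doses (not always all listed) in √10 steps. After 5 days, nuclei were stained in a one-step fixation (final 0.05% Triton X-100, 1% formaldehyde, 1 ug/ml Hoechst) and counted on 4× images, and relative viability is the treated-to-vehicle nuclei ratio, as the median of duplicate plates.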

[2] = system: SK-LU-1
Outline: as §1

[3] = system: NCI-H1975
Outline: as §1

[4] = system: NCI-H596
Outline: as §1

[5] = system: EKVX
Outline: as §1

[6] = system: NCI-H460
Outline: as §1

[7] = system: NCI-H522
Outline: as §1

[8] = system: NCI-H1666
Outline: as §1

[9] = system: LCLC-97TM1
Outline: as §1

[10] = system: NCI-H1437
Outline: as §1

[11] = system: PC-3 [JPC-3]
Outline: as §1

[12] = system: NCI-H838
Outline: as §1

[13] = system: NCI-H1915
Outline: as §1

[14] = system: NCI-H441
Outline: as §1

[15] = system: NCI-H661
Outline: as §1

[16] = system: NCI-H322M
Outline: as §1

[17] = system: NCI-H2342
Outline: as §1

[18] = system: NCI-H647
Outline: as §1

[19] = system: NCI-H520
Outline: as §1

[20] = system: NCI-H1650
Outline: as §1

[21] = system: NCI-H358
Outline: as §1

[22] = system: NCI-H23
Outline: as §1

Question: With `CCNC(=O)c1noc(-c2cc(C(C)C)c(O)cc2O)c1-c1ccc(CN2CCOCC2)cc1` [Luminespib] + O=C(CCCCCCC(=O)Nc1ccccc1)NO [Vorinostat] (partner 1 µM) as the compound, how does the relative viability ([1]; first compound 0.002 µM) read?
Answer: 1.1

Question: What about the relative viability ([1]; first compound 0.006325 µM) of the same compound?
Answer: 1.21

Question: And the relative viability ([1]; first compound 0.02 µM)?
Answer: 0.832

Question: What about the relative viability ([1]; first compound 0.06325 µM) of the same compound?
Answer: 1.04

Question: And the relative viability ([1]; first compound 0.2 µM)?
Answer: 0.31

Question: What about the relative viability ([2]; first compound 0.002 µM) of the same compound?
Answer: 0.927

Question: And the relative viability ([2]; first compound 0.006325 µM)?
Answer: 0.596

Question: And the relative viability ([2]; first compound 0.02 µM)?
Answer: 0.615

Question: What about the relative viability ([2]; first compound 0.06325 µM) of the same compound?
Answer: 0.262

Question: What about the relative viability ([2]; first compound 0.2 µM) of the same compound?
Answer: 0.211

Question: What about the relative viability ([3]; first compound 0.002 µM) of the same compound?
Answer: 0.736

Question: What about the relative viability ([3]; first compound 0.006325 µM) of the same compound?
Answer: 0.632

Question: What about the relative viability ([3]; first compound 0.02 µM) of the same compound?
Answer: 0.592

Question: And the relative viability ([3]; first compound 0.06325 µM)?
Answer: 0.138

Question: And the relative viability ([3]; first compound 0.2 µM)?
Answer: 0.147

Question: And the relative viability ([4]; first compound 0.002 µM)?
Answer: 0.61

Question: What about the relative viability ([4]; first compound 0.006325 µM) of the same compound?
Answer: 0.553

Question: What about the relative viability ([4]; first compound 0.02 µM) of the same compound?
Answer: 0.434

Question: What about the relative viability ([4]; first compound 0.06325 µM) of the same compound?
Answer: 0.634

Question: And the relative viability ([4]; first compound 0.2 µM)?
Answer: 0.574

Question: And the relative viability ([5]; first compound 0.002 µM)?
Answer: 0.466

Question: And the relative viability ([5]; first compound 0.006325 µM)?
Answer: 0.684

Question: What about the relative viability ([5]; first compound 0.02 µM) of the same compound?
Answer: 0.47

Question: And the relative viability ([5]; first compound 0.06325 µM)?
Answer: 0.669

Question: What about the relative viability ([5]; first compound 0.2 µM) of the same compound?
Answer: 0.572

Question: What about the relative viability ([6]; first compound 0.002 µM) of the same compound?
Answer: 0.775

Question: And the relative viability ([6]; first compound 0.006325 µM)?
Answer: 0.68

Question: And the relative viability ([6]; first compound 0.02 µM)?
Answer: 0.237

Question: And the relative viability ([6]; first compound 0.06325 µM)?
Answer: 0.0162

Question: What about the relative viability ([6]; first compound 0.2 µM) of the same compound?
Answer: 0.0131

Question: What about the relative viability ([7]; first compound 0.002 µM) of the same compound?
Answer: 0.81

Question: And the relative viability ([7]; first compound 0.006325 µM)?
Answer: 0.904

Question: And the relative viability ([7]; first compound 0.02 µM)?
Answer: 0.772

Question: What about the relative viability ([7]; first compound 0.06325 µM) of the same compound?
Answer: 0.607

Question: And the relative viability ([7]; first compound 0.2 µM)?
Answer: 0.354

Question: What about the relative viability ([8]; first compound 0.002 µM) of the same compound?
Answer: 0.983

Question: What about the relative viability ([8]; first compound 0.006325 µM) of the same compound?
Answer: 0.994

Question: And the relative viability ([8]; first compound 0.02 µM)?
Answer: 1.19

Question: What about the relative viability ([8]; first compound 0.06325 µM) of the same compound?
Answer: 1.03

Question: What about the relative viability ([8]; first compound 0.2 µM) of the same compound?
Answer: 0.909

Question: And the relative viability ([9]; first compound 0.002 µM)?
Answer: 0.555

Question: And the relative viability ([9]; first compound 0.006325 µM)?
Answer: 0.545

Question: What about the relative viability ([9]; first compound 0.06325 µM) of the same compound?
Answer: 0.0694

Question: And the relative viability ([9]; first compound 0.2 µM)?
Answer: 0.0638

Question: What about the relative viability ([10]; first compound 0.002 µM) of the same compound?
Answer: 0.92

Question: And the relative viability ([10]; first compound 0.006325 µM)?
Answer: 0.828

Question: What about the relative viability ([10]; first compound 0.02 µM) of the same compound?
Answer: 0.82

Question: What about the relative viability ([10]; first compound 0.06325 µM) of the same compound?
Answer: 0.601

Question: What about the relative viability ([10]; first compound 0.2 µM) of the same compound?
Answer: 0.218

Question: And the relative viability ([11]; first compound 0.002 µM)?
Answer: 0.737

Question: And the relative viability ([11]; first compound 0.006325 µM)?
Answer: 0.361

Question: And the relative viability ([11]; first compound 0.02 µM)?
Answer: 0.491

Question: And the relative viability ([11]; first compound 0.06325 µM)?
Answer: 0.381

Question: And the relative viability ([11]; first compound 0.2 µM)?
Answer: 0.287

Question: And the relative viability ([12]; first compound 0.002 µM)?
Answer: 0.778

Question: And the relative viability ([12]; first compound 0.006325 µM)?
Answer: 0.655

Question: What about the relative viability ([12]; first compound 0.02 µM) of the same compound?
Answer: 0.785

Question: And the relative viability ([12]; first compound 0.06325 µM)?
Answer: 0.151

Question: And the relative viability ([12]; first compound 0.2 µM)?
Answer: 0.153

Question: And the relative viability ([13]; first compound 0.002 µM)?
Answer: 0.556

Question: And the relative viability ([13]; first compound 0.006325 µM)?
Answer: 0.506

Question: What about the relative viability ([13]; first compound 0.02 µM) of the same compound?
Answer: 0.415

Question: And the relative viability ([13]; first compound 0.06325 µM)?
Answer: 0.477

Question: What about the relative viability ([13]; first compound 0.2 µM) of the same compound?
Answer: 0.0602

Question: And the relative viability ([14]; first compound 0.002 µM)?
Answer: 0.784

Question: What about the relative viability ([14]; first compound 0.006325 µM) of the same compound?
Answer: 0.823

Question: What about the relative viability ([14]; first compound 0.02 µM) of the same compound?
Answer: 0.785

Question: And the relative viability ([14]; first compound 0.06325 µM)?
Answer: 0.233

Question: And the relative viability ([14]; first compound 0.2 µM)?
Answer: 0.11

Question: And the relative viability ([15]; first compound 0.002 µM)?
Answer: 0.777

Question: What about the relative viability ([15]; first compound 0.006325 µM) of the same compound?
Answer: 0.803

Question: And the relative viability ([15]; first compound 0.02 µM)?
Answer: 0.759

Question: What about the relative viability ([15]; first compound 0.06325 µM) of the same compound?
Answer: 0.345

Question: What about the relative viability ([15]; first compound 0.2 µM) of the same compound?
Answer: 0.306

Question: And the relative viability ([16]; first compound 0.002 µM)?
Answer: 0.83

Question: And the relative viability ([16]; first compound 0.006325 µM)?
Answer: 0.407

Question: And the relative viability ([16]; first compound 0.02 µM)?
Answer: 0.736

Question: What about the relative viability ([16]; first compound 0.06325 µM) of the same compound?
Answer: 0.486

Question: And the relative viability ([16]; first compound 0.2 µM)?
Answer: 0.417

Question: And the relative viability ([17]; first compound 0.002 µM)?
Answer: 0.766

Question: What about the relative viability ([17]; first compound 0.006325 µM) of the same compound?
Answer: 0.809

Question: And the relative viability ([17]; first compound 0.02 µM)?
Answer: 0.467

Question: And the relative viability ([17]; first compound 0.06325 µM)?
Answer: 0.679

Question: And the relative viability ([17]; first compound 0.2 µM)?
Answer: 0.416

Question: What about the relative viability ([18]; first compound 0.002 µM) of the same compound?
Answer: 0.584

Question: What about the relative viability ([18]; first compound 0.006325 µM) of the same compound?
Answer: 0.381

Question: What about the relative viability ([18]; first compound 0.02 µM) of the same compound?
Answer: 0.646

Question: What about the relative viability ([18]; first compound 0.06325 µM) of the same compound?
Answer: 0.11

Question: And the relative viability ([18]; first compound 0.2 µM)?
Answer: 0.0869

Question: What about the relative viability ([19]; first compound 0.002 µM) of the same compound?
Answer: 0.748

Question: What about the relative viability ([19]; first compound 0.006325 µM) of the same compound?
Answer: 0.747

Question: What about the relative viability ([19]; first compound 0.02 µM) of the same compound?
Answer: 0.624

Question: And the relative viability ([19]; first compound 0.06325 µM)?
Answer: 0.197

Question: And the relative viability ([19]; first compound 0.2 µM)?
Answer: 0.166

Question: And the relative viability ([20]; first compound 0.002 µM)?
Answer: 0.478

Question: What about the relative viability ([20]; first compound 0.006325 µM) of the same compound?
Answer: 0.516

Question: And the relative viability ([20]; first compound 0.02 µM)?
Answer: 0.388

Question: What about the relative viability ([20]; first compound 0.06325 µM) of the same compound?
Answer: 0.139

Question: What about the relative viability ([20]; first compound 0.2 µM) of the same compound?
Answer: 0.135

Question: What about the relative viability ([21]; first compound 0.002 µM) of the same compound?
Answer: 0.662

Question: What about the relative viability ([21]; first compound 0.006325 µM) of the same compound?
Answer: 0.66

Question: What about the relative viability ([21]; first compound 0.02 µM) of the same compound?
Answer: 0.669

Question: And the relative viability ([21]; first compound 0.06325 µM)?
Answer: 0.0646

Question: And the relative viability ([21]; first compound 0.2 µM)?
Answer: 0.0598

Question: What about the relative viability ([22]; first compound 0.002 µM) of the same compound?
Answer: 0.632

Question: And the relative viability ([22]; first compound 0.006325 µM)?
Answer: 0.481

Question: And the relative viability ([22]; first compound 0.02 µM)?
Answer: 0.315

Question: And the relative viability ([22]; first compound 0.06325 µM)?
Answer: 0.0969

Question: What about the relative viability ([22]; first compound 0.2 µM) of the same compound?
Answer: 0.108
